Assay results: ChEMBL document CHEMBL4396887, “Five-Membered N-Heterocyclic Scaffolds as Novel Amino Bioisosteres at γ-Aminobutyric Acid (GABA) Type A Receptors and GABA Transporters” (J Med Chem, 2019)

Tests used:
[1] = target: Gamma-aminobutyric acid receptor subunit alpha-4/beta-2/gamma-2 (Homo sapiens, UniProt P18507+P47870+P48169); assay: Agonist activity at recombinant human GABA-A alpha4beta2gamma2S receptor transiently expressed in human tsA201 cells incubated for 30 mins and measured up to 90 secs by FMP dye based FLIPR membrane potential blue assay; format: cell-based
Chain of Gamma-aminobutyric acid receptor subunit alpha-4/beta-2/gamma-2 (Homo sapiens, UniProt P18507+P47870+P48169) (P48169 whole entry, one chain of several): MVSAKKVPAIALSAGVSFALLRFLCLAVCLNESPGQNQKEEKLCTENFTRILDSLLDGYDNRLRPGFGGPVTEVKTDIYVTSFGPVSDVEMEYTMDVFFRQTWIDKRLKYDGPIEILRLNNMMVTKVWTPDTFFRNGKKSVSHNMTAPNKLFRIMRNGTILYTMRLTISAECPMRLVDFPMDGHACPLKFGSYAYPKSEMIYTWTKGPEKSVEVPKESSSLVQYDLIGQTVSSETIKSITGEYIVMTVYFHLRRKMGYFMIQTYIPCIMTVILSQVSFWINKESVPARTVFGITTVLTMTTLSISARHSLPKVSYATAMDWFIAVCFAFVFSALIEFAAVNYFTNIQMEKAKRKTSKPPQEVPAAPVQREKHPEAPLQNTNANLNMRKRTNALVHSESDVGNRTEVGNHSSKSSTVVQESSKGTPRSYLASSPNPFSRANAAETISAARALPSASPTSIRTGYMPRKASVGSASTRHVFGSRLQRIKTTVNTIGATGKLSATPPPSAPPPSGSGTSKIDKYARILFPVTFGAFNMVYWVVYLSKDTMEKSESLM

Homo sapiens = species: Homo sapiens; assay: Agonist activity at recombinant human GABA-A alpha3beta2gamma2S receptor transiently expressed in human tsA201 cells assessed as GABA-induced maximum response incubated for 30 mins and measured up to 90 secs by FMP dye based FLIPR membrane potential blue assay relative to GABA; format: cell-based
[2] = target: Gamma-aminobutyric acid receptor subunit alpha-4/beta-2/gamma-2 (Homo sapiens, UniProt P47870+P18507+P48169); assay: Agonist activity at recombinant human GABA-A alpha4beta2gamma2S receptor transiently expressed in human tsA201 cells assessed as GABA-induced maximum response incubated for 30 mins and measured up to 90 secs by FMP dye based FLIPR membrane potential blue assay relative to GABA; format: cell-based
[3] = target: T1, Gamma-aminobutyric acid receptor subunit rho-1 (Homo sapiens, UniProt P24046); assay: Agonist activity at recombinant human GABA-A rho-1 receptor transiently expressed in human tsA201 cells assessed as GABA-induced maximum response incubated for 30 mins and measured up to 90 secs by FMP dye based FLIPR membrane potential blue assay relative to GABA; format: cell-based
T1 sequence (P24046 whole entry): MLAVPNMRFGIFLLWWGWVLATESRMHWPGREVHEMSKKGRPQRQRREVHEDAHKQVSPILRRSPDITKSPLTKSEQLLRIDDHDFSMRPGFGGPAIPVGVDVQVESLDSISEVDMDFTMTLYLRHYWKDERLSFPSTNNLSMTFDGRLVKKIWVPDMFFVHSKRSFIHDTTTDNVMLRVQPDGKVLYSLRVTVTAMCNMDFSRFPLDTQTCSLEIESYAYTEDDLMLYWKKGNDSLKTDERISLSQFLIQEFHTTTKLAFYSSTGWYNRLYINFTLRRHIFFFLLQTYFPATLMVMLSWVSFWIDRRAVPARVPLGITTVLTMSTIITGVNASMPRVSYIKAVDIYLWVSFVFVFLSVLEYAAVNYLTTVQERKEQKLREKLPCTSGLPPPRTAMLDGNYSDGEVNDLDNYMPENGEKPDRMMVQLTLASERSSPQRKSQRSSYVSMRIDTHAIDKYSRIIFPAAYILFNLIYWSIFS

[4] = target: GABA-A receptor; anion channel; assay: Displacement of [3H]muscimol from GABA(A) receptor in Sprague-Dawley rat cortical synaptic membranes by liquid scintillation counting
cells = format: cell-based; settings: Homo sapiens, tsA201, 0.5 h
[5] = target: GABA-A receptor; alpha-1/beta-2/gamma-2 (Homo sapiens) (UniProt P14867+P47870+P18507); assay: Agonist activity at recombinant human GABA-A alpha1beta2gamma2S receptor transiently expressed in human tsA201 cells assessed as GABA-induced maximum response incubated for 30 mins and measured up to 90 secs by FMP dye based FLIPR membrane potential blue assay relative to GABA; format: cell-based
[6] = target: Gamma-aminobutyric acid receptor subunit alpha-5/beta-2/gamma-2 (Homo sapiens) (UniProt P47870+P18507+P31644); assay: Agonist activity at recombinant human GABA-A alpha5beta2gamma2S receptor transiently expressed in human tsA201 cells assessed as GABA-induced maximum response incubated for 30 mins and measured up to 90 secs by FMP dye based FLIPR membrane potential blue assay relative to GABA; format: cell-based
[7] = target: T2, Gamma-aminobutyric acid receptor subunit alpha-5/beta-2/gamma-2 (Homo sapiens, UniProt P18507+P31644+P47870); assay: Agonist activity at recombinant human GABA-A alpha5beta2gamma2S receptor transiently expressed in human tsA201 cells incubated for 30 mins and measured up to 90 secs by FMP dye based FLIPR membrane potential blue assay; format: cell-based
T2 sequence (P47870 whole entry): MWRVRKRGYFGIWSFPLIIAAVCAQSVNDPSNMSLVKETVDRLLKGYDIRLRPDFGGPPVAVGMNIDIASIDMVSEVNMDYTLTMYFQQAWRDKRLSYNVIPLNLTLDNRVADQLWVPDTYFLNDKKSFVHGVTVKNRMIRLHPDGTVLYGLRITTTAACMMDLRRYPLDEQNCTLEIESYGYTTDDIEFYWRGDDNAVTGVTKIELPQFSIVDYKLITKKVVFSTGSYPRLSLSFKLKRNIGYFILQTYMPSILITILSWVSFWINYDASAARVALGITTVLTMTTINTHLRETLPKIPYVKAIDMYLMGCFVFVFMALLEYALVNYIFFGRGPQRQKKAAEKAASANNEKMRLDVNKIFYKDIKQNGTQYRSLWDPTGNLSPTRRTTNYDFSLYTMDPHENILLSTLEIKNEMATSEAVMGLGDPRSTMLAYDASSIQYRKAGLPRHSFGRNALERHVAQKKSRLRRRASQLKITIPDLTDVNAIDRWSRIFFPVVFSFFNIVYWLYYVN
T2 sequence (P18507 whole entry): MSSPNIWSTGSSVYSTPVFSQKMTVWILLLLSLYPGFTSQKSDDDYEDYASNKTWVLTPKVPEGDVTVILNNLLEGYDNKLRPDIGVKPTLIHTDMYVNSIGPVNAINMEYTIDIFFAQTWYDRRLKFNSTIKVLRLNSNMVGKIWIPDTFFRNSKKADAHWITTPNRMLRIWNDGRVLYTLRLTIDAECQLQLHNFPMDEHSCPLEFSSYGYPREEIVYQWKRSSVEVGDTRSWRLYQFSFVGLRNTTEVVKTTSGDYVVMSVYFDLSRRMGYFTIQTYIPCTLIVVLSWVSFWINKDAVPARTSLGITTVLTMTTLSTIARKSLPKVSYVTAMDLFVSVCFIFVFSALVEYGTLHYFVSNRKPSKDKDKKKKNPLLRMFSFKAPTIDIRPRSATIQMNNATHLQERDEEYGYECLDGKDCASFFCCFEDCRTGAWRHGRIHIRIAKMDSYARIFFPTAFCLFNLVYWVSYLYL
T2 sequence (P31644 whole entry): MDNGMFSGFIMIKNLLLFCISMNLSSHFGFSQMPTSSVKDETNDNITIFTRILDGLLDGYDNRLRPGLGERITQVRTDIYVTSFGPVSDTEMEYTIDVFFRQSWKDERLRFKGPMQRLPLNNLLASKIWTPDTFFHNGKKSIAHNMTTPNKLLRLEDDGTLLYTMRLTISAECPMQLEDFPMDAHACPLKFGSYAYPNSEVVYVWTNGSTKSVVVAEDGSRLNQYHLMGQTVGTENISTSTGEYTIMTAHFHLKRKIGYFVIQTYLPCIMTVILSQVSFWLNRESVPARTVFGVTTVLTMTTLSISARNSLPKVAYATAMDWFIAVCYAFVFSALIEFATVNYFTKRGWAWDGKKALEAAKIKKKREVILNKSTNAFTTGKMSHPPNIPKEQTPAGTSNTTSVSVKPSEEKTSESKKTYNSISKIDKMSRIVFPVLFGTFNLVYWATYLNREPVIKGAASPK

[8] = target: T3, GABA-A receptor; alpha-1/beta-2/gamma-2 (Homo sapiens, UniProt P14867+P18507+P47870); assay: Agonist activity at recombinant human GABA-A alpha1beta2gamma2S receptor transiently expressed in human tsA201 cells incubated for 30 mins and measured up to 90 secs by FMP dye based FLIPR membrane potential blue assay; format: cell-based
T3 sequence (P14867 whole entry): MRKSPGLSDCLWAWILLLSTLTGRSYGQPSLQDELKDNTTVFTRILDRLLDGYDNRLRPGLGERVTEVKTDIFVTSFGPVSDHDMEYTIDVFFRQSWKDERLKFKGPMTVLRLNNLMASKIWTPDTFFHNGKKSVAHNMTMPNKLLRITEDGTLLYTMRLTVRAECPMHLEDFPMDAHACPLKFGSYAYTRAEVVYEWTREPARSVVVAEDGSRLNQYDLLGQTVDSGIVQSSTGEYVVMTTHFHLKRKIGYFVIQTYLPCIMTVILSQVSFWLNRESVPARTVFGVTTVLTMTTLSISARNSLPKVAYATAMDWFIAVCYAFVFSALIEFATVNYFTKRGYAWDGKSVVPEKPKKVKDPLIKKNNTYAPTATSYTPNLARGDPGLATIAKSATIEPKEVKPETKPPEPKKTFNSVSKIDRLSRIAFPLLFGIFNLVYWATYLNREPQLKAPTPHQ
T3 sequence (P47870 whole entry): T2 sequence (P47870 whole entry)
T3 sequence (P18507 whole entry): T2 sequence (P18507 whole entry)

[9] = target: T1, Gamma-aminobutyric acid receptor subunit rho-1; assay: Agonist activity at recombinant human GABA-A rho-1 receptor transiently expressed in human tsA201 cells incubated for 30 mins and measured up to 90 secs by FMP dye based FLIPR membrane potential blue assay; format: cell-based; settings: read-out: EC50
[10] = target: Sodium- and chloride-dependent GABA transporter 1 (Homo sapiens, UniProt P30531); assay: Inhibition of human GAT1 expressed in Flp-In CHO cells assessed as reduction in [3H]GABA uptake at 100 uM incubated for 3 mins by liquid scintillation counting method relative to control; format: cell-based
Chain of Sodium- and chloride-dependent GABA transporter 1 (P30531 whole entry, looked up): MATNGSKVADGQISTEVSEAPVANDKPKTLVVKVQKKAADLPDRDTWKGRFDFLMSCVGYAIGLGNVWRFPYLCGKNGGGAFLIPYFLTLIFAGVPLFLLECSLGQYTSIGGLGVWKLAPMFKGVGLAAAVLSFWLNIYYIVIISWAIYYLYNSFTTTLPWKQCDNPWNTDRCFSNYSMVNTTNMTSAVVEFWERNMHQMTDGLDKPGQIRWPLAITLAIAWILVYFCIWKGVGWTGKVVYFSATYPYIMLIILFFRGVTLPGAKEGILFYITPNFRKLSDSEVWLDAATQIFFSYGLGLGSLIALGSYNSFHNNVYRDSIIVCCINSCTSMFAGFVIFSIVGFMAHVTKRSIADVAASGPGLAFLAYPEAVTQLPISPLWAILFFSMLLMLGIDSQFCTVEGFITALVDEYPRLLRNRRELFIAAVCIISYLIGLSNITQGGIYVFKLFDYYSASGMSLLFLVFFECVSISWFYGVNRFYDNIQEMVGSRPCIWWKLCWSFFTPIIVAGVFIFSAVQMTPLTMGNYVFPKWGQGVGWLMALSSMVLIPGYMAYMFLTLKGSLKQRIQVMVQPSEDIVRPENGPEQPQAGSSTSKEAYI

[11] = target: T4, Sodium- and chloride-dependent betaine transporter (Homo sapiens) (UniProt P48065); assay: Inhibition of human BGT1 expressed in Flp-In CHO cells assessed as reduction in [3H]GABA uptake at 100 uM incubated for 3 mins by liquid scintillation counting method relative to control; format: cell-based
T4 sequence (whole entry): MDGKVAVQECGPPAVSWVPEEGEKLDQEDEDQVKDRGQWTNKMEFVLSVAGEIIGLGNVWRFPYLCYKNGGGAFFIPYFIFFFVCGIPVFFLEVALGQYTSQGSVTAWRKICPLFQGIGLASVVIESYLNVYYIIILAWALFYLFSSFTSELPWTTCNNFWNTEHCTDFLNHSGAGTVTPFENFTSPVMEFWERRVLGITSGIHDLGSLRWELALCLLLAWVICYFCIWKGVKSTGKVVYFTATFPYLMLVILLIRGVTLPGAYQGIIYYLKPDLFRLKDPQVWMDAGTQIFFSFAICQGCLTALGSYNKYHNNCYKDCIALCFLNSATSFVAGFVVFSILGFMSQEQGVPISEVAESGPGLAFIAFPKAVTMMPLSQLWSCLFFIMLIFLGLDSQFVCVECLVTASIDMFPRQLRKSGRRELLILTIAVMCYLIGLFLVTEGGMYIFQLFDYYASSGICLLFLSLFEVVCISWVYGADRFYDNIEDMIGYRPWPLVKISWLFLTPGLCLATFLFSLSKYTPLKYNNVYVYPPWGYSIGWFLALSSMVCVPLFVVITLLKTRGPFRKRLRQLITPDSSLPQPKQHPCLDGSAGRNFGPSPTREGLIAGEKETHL

[12] = target: T5, Sodium- and chloride-dependent GABA transporter 3 (Homo sapiens) (UniProt P48066); assay: Inhibition of human GAT3 expressed in Flp-In CHO cells assessed as reduction in [3H]GABA uptake at 100 uM incubated for 3 mins by liquid scintillation counting method relative to control; format: cell-based
T5 sequence (whole entry): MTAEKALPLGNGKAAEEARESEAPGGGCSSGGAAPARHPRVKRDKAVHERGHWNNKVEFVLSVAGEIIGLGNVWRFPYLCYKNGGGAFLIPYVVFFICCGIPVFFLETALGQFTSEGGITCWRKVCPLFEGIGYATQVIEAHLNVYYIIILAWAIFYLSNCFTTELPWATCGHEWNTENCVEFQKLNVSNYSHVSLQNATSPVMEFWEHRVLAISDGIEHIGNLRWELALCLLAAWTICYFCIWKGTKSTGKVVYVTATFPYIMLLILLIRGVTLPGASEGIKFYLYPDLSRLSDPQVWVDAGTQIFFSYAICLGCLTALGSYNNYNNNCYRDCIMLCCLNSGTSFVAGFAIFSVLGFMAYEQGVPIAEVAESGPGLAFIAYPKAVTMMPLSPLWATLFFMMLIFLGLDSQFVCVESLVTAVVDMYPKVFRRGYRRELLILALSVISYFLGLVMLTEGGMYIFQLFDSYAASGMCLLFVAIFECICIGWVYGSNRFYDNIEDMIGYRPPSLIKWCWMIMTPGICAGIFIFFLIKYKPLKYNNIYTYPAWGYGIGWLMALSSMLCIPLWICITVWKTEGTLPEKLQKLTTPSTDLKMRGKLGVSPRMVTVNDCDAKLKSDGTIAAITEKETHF

[13] = target: T6, Sodium- and chloride-dependent GABA transporter 2 (Homo sapiens) (UniProt Q9NSD5); assay: Inhibition of human GAT2 expressed in Flp-In CHO cells assessed as reduction in [3H]GABA uptake at 100 uM incubated for 3 mins by liquid scintillation counting method relative to control; format: cell-based
T6 sequence (whole entry): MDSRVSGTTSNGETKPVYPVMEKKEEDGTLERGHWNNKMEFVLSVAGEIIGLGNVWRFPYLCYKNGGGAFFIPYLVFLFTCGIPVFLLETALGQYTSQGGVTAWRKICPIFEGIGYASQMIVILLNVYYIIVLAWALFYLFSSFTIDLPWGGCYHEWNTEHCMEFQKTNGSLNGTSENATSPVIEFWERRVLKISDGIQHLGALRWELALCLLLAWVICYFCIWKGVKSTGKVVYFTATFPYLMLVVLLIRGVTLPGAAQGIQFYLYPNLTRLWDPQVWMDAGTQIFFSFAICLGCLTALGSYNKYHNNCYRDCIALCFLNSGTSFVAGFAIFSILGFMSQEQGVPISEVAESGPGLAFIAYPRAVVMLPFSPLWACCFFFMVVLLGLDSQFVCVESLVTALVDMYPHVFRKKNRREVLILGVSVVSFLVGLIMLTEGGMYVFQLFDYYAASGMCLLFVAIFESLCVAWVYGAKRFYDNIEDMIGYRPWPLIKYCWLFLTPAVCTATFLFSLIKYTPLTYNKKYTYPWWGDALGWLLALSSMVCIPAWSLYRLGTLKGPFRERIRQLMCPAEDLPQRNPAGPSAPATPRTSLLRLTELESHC

[14] = target: T7, Sodium- and chloride-dependent GABA transporter 2 (Homo sapiens, UniProt Q9NSD5); assay: Inhibition of human GAT2 expressed in Flp-In CHO cells assessed as reduction in [3H]GABA uptake incubated for 3 mins by liquid scintillation counting method; format: cell-based
T7 sequence (Q9NSD5 whole entry): T6 sequence (whole entry)

[15] = target: T8, Sodium- and chloride-dependent GABA transporter 3 (Homo sapiens, UniProt P48066); assay: Inhibition of human GAT3 expressed in Flp-In CHO cells assessed as reduction in [3H]GABA uptake incubated for 3 mins by liquid scintillation counting method; format: cell-based; settings: read-out: IC50
T8 sequence (P48066 whole entry): T5 sequence (whole entry)

Row | SMILES | EC50 ([1]; read-out: EC50) | EC50 ([1]; read-out: pEC50 (converted)) | Rmax (Homo sapiens) | Rmax [2] | Rmax [3] | Ki [4] | EC50 (cells; read-out: EC50) | EC50 (cells; read-out: pEC50 (converted)) | Rmax [5] | Rmax [6] | EC50 [7] | EC50 [8] | EC50 [9] | inhibition [10] | inhibition [11] | inhibition [12] | inhibition [13] | IC50 [14] | IC50 [15]
1 | NC1=N[C@H](CC(=O)O)CS1 | 0.59 µM | 5.89 µM | 98% | 105% | 75% | 59 nM | 370 nM | 372 nM | 97% | 104% | 120 nM | 1.5 µM | 5.4 µM |  |  |  |  |  | 
2 | CC(C(=O)O)C1CSC(N)=N1 (stereo in doubt; l-10a) |  |  | 83% | 32% | 63% |  |  |  | 69% | 97% |  |  |  | > 30% | > 30% | > 30% | > 30% |  | 
3 | NC1=N[C@@H](CC(=O)O)CS1 | 8.6 µM |  | 102% | 53% | 34% | 360 nM | 2400 nM | 2340 nM | 65% | 103% | 560 nM | 12 µM | 3.7 µM |  |  |  |  |  | 
4 | NCCCC(=O)O [GAMMA-AMINOBUTYRIC ACID] |  |  |  |  |  |  |  |  | 100% |  |  |  |  |  |  |  |  | 26 µM | 11 µM
